Test results as given in BindingDB's records for doi:10.1021/bi4005182 (The Scripps Research Institute, 2013).

Molecular target: Bifunctional purine biosynthesis protein ATIC (Homo sapiens, UniProt P31939)
Assay: Enzyme Activity Assays
Procedure: Enzyme activity assays of recombinant hGAR Tfase and recombinant hAICAR Tfase were performed as previously described. Kinetics of the enzyme reactions were monitored for 2 min after reaction initiation.

Chain of Bifunctional purine biosynthesis protein ATIC (P31939 whole entry): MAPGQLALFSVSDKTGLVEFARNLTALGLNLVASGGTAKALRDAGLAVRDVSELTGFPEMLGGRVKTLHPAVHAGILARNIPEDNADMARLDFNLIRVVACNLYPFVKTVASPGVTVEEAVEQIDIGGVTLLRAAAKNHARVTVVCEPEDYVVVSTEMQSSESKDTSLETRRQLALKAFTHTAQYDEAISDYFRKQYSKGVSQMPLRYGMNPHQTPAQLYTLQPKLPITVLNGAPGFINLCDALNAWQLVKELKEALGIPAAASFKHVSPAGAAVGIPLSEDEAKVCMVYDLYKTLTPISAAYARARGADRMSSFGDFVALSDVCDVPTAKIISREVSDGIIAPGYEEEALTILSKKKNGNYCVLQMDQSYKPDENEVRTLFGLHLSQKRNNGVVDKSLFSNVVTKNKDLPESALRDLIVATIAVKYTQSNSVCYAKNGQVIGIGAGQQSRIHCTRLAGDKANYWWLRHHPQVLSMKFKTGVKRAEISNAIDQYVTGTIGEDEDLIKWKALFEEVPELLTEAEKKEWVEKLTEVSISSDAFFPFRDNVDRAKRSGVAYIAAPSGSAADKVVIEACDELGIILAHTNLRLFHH

Compound `Nc1nc2c(c(=O)[nH]1)C[C@@H](CCc1ccc(C(=O)NC(CCC(=O)O)C(=O)O)cc1)CN2` (stereo partly specified) [Lometrexol (3)] has a Ki of over 100 µM.
